Reference: US9688662B2, “N-(2,3-dihydro-1H-pyrrolo[2,3-b]pyridin-5-yl)-4-quinazolinamine and N-(2,3-dihydro-1H-indol-5-yl)-4-quinazolinamine derivatives as perk inhibitors” (Janssen Pharmaceutica NV, priority 2013, dated 2017)

Tests used:
PERK [1] = target: T1, PERK (Homo sapiens, UniProt Q9NZJ5); assay: Cell-based PERK inhibition assay (TR-FRET, phosphorylation of GFP-eIF2 alpha in HEK293 cells, tunicamycin); conditions: HEK293 (LanthaScreen eIF2α GripTite) cells, compounds 60 min, tunicamycin 2 microg/ml 120 min; for IC50: read-out: P-eIF2alpha_Lantha_cell pIC50 (converted)
T1 sequence (Q9NZJ5 30-1116): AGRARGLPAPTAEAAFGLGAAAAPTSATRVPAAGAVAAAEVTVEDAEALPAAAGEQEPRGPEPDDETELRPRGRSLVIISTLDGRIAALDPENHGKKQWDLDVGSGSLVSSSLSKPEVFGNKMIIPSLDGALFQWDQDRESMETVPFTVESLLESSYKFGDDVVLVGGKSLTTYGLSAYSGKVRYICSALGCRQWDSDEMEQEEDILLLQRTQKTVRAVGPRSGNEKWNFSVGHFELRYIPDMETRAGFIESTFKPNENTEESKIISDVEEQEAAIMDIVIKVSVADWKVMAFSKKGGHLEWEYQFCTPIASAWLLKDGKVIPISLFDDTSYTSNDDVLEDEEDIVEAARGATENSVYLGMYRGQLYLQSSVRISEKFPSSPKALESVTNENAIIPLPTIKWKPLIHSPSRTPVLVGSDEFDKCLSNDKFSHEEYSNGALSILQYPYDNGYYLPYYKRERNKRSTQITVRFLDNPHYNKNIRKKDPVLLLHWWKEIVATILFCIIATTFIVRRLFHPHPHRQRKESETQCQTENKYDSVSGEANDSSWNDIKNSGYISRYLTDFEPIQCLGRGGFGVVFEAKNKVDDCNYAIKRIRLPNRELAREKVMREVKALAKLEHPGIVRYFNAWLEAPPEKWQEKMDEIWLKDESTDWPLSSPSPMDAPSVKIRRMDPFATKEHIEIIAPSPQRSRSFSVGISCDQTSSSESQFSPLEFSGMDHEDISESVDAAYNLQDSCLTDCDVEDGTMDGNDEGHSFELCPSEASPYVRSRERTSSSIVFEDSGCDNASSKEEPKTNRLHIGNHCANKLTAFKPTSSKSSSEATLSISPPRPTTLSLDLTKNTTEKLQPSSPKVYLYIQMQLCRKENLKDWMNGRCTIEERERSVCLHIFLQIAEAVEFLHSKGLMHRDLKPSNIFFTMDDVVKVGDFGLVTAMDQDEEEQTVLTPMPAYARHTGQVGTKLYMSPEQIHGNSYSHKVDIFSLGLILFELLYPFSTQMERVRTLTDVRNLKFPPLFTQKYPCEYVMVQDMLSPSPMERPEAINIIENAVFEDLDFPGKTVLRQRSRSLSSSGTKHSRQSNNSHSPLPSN
Method: A cell-based TR-FRET assay to measure inhibition of phosphorylation of GFP-eIF2 alpha expressed in HEK293 cells by compounds was set up as follows:
LanthaScreen® eIF2α GripTite cells (Invitrogen M4387) were plated and incubated for 16-20 h at 37° C. and 5% CO2, incubated with test compounds for 60 min, and then stimulated with tunicamycin (2 microg/ml) for 120 min. Culture medium was aspirated from the wells and, the cells were lysed in LanthaScreen® Cellular Assay Lysis Buffer (Invitrogen; PV5598), supplemented with protease inhibitor cocktail (Sigma P8340, 1/1000 dilution) and phosphatase inhibitor cocktail (Sigma P0044, 1/1000 dilution), including 2 nM terbium-labeled eIF2a pSer52 antibody (Invitrogen; PV4816).

PERK [2] = target: T1, PERK; assay: In-vitro PERK enzyme inhibition assay (LanthaScreen, KIN_PERK); assay type: biochemical; design: GST (N); purchased Invitrogen PV5106; conditions: recombinant GST-PERK, GFP-eIF2 alpha substrate, 5 μM ATP, 60 minutes; for IC50: read-out: KIN_PERK pIC50 (converted)
Method: Pharmacology i) In-Vitro PERK Enzyme Inhibition Assay (KIN_PERK pIC50)
The compounds of the invention were tested for inhibitory activity against PERK in an enzyme inhibition assay.
A biochemical PERK kinase assay using LanthaScreen® technology from Invitrogen using recombinant GST-PERK (Invitrogen PV5106), GFP-eIF2 alpha (full length) as substrate (Invitrogen PV4809) and the Terbium-labeled antibody (Tb-anti-peIF2alpha (pSer52); Invitrogen PV4816) as detection reagent, was performed essentially as described by the manufacturer, using following specific parameters: […]

COc1cc2ncnc(Nc3ccc4c(c3)CCN4C(=O)Cn3ccc4ccccc43)c2cc1OC [Compound 15]
IC50 (PERK [1]): ~302 nM
melting point: 176 °C
KIN_PERK pIC50 (PERK [2]): 8.2

COc1cc2ncnc(Nc3ccc4c(c3)CCN4C(=O)Cc3csc4ccccc34)c2cc1OC [Compound 16]
IC50 (PERK [1]): 501 nM
melting point: 161 °C
IC50 (PERK [2]): 5.01 nM

COc1cc2ncnc(Nc3ccc4c(c3)CCN4C(=O)Cc3nn(C)c4ccccc34)c2cc1OC [Compound 17]
IC50 (PERK [1]): 794 nM
melting point: 158 °C
IC50 (PERK [2]): 20 nM

COc1cc2ncnc(Nc3ccc4c(c3)CCN4C(=O)Cc3cccs3)c2cc1OC [Compound 20]
IC50 (PERK [1]): 1260 nM
melting point: 219 °C
IC50 (PERK [2]): 31.6 nM

COc1cc2ncnc(Nc3ccc4c(c3)CCN4C(=O)Cc3ccn(C)n3)c2cc1OC [Compound 28]
P-eIF2alpha_Lantha_cell pIC50 (PERK [1]): 5.1
melting point: 199 °C
KIN_PERK pIC50 (PERK [2]): 6.6

COc1cc2ncnc(Nc3ccc4c(c3)CCN4C(=O)Cc3coc4ccccc34)c2cc1OC [Compound 30]
IC50 (PERK [1]): > 30200 nM
melting point: 165 °C
KIN_PERK pIC50 (PERK [2]): 8.0

COc1cc2ncnc(Nc3ccc4c(c3F)CCN4C(=O)Cc3c(C)[nH]c4ccccc34)c2cc1OC [Compound 39, 1-[5-[(6,7-dimethoxyquinazolin-4-yl)amino]-4-fluoro-indolin-1-yl]-2-(2-methyl-1H-indol-3-yl)ethanone]
P-eIF2alpha_Lantha_cell pIC50 (PERK [1]): 7.9
melting point: 174 °C
KIN_PERK pIC50 (PERK [2]): 9.0

COc1cc2ncnc(Nc3ccc4c(c3)CCN4C(=O)Cc3c[nH]c4ccccc34)c2cc1OC [Compound 40]
IC50 (PERK [1]): 631 nM
melting point: 180 °C
IC50 (PERK [2]): 12.6 nM

COc1cc2ncnc(Nc3ccc4c(c3)CCN4C(=O)Cc3cc(F)ccc3F)c2cc1OC [Compound 42]
IC50 (PERK [1]): 631 nM
melting point: > 260 °C
IC50 (PERK [2]): 6.31 nM

COc1cc2ncnc(Nc3ccc4c(c3)CCN4C(=O)Cn3ccnc3)c2cc1OC [Compound 53]
IC50 (PERK [1]): > 10000 nM
melting point: 174 °C
IC50 (PERK [2]): > 10000 nM
